# Source: publication PMC9370021, “Novel 1,3-Thiazole Analogues with Potent Activity against Breast Cancer: A Design, Synthesis, In Vitro, and In Silico Study” (Molecules, 2022)
# Assays:
# [1] = test system: MCF-7 breast cancer cell line; assay: MTT anti-proliferative assay, MCF-7; assay type: cell-based; details: Homo sapiens, MCF7, 48 h, mean ± S.E.M.
# Experimental: (§1) Toward this aim, the cells were treated with the synthesized compounds at different concentrations and were incubated for 48 h. In our evaluations, staurosporine (STU) was used as a reference drug. After the cells were washed, they were treated with MTT solution, and an ELISA reader assessed the absorption of the solution at a wavelength of 570 nm.
# (§2) Finally, the resulting MTT crystals were dissolved at ambient temperature in acidified isopropanol (180 µL/well) with shaking, and the absorption was assessed at 570 nm utilizing ELISA.
# [2] = test system: MDA-MB-231 breast cancer cell line; assay: MTT anti-proliferative assay, MDA-MB-231; assay type: cell-based; details: mean ± S.E.M.
# Experimental: as §1, §2
# human VEGFR-2/KDR = human VEGFR-2/KDR (Homo sapiens, UniProt P35968); assay: VEGFR-2 inhibitory activity (VEGFR-2/KDR ELISA kit)
# Chain of human VEGFR-2/KDR (P35968 20-1356): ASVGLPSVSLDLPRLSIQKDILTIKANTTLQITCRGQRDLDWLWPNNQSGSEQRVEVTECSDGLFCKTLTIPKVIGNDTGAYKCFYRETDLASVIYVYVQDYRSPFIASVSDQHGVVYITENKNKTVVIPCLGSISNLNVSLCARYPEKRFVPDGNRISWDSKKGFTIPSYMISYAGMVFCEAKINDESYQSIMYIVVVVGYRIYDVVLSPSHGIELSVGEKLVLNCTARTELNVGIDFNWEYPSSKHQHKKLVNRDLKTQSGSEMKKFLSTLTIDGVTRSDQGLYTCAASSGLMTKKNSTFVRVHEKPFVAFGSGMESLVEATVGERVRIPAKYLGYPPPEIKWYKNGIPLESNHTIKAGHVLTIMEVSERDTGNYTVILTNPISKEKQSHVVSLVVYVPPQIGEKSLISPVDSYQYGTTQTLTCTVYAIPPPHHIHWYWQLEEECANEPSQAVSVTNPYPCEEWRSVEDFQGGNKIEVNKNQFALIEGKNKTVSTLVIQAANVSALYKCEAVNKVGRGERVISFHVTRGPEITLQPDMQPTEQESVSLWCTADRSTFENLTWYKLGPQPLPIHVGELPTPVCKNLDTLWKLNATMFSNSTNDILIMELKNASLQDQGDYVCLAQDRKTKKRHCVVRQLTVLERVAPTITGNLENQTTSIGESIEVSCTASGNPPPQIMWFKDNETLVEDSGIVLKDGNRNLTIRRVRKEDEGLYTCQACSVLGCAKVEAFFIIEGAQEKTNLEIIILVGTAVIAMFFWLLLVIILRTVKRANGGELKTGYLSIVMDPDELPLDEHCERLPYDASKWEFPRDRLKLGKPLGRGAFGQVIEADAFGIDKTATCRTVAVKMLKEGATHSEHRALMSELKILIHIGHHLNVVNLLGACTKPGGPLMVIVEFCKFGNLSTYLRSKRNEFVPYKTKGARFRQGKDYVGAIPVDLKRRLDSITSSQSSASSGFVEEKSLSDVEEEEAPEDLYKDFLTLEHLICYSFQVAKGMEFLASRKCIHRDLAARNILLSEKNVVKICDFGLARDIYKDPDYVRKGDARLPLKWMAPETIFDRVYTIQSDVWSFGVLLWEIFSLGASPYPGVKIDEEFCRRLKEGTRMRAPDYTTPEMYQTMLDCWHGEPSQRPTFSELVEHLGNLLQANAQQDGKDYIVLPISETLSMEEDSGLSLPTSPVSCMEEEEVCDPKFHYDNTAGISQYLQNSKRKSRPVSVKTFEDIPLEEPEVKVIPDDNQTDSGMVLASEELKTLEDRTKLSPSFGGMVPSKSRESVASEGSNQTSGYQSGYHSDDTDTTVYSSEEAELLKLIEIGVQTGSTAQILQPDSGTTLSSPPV
# Experimental: In our experiments, we used Sorafenib as a positive control drug reference. The activity of compounds was assessed at different concentrations, and the IC50 values were determined.
# [3] = test system: epithelial breast cell line MCF-10A; assay: MTT cytotoxicity assay, epithelial breast cells MCF-10A; assay type: cell-based; details: Homo sapiens, 48 h, mean ± S.E.M.
# Experimental: as §1, §2
# MCF-7 cells [4] = assay: Annexin V-FITC/PI dual staining (apoptosis and necrosis); assay type: cell-based; details: MCF-7, 5.73 µM, 24 h
# Experimental: Our findings encouraged us to further explore the mechanistic insights accounting for the potent cytotoxicity and cell cycle arrest. To investigate whether the mode of action for the antiproliferative activity of compound 4 toward MCF-7 cells involves apoptosis and/or necrosis, we performed Annexin V- FITC/PI dual staining assay. To this end, we treated MCF-7 cells with compound 4 (5.73 µM) for 24h and assessed the programmed cell death at different stages utilizing the cytofluorometry analysis. […] Indeed, treatment with compound 4 increased apoptosis by 9 and 89 times at the early and late stages, respectively, compared to control cells.
# To explore the effect of compound 4 on the programmed cell death mechanisms of MCF-7 cells, fluorescent Annexin V-FITC/ PI assay was performed using flow cytometry following a previously reported procedure. Briefly, MCF-7 cells (2 × 10^5) were treated with compound 4 at 5.73 µM concentration. After incubation for 24 h, the harvested cells were stained in the dark at 37 °C with Annexin V-FITC/ PI dye for 15 min. Cytofluorometry analysis was assessed by BD FACS Calibur (Becton and Dickinson, Heidelberg, Germany), and the BD cell Quest pro software was utilized to analyze the results.
# MCF-7 cells [5] = assay: Cell cycle analysis by flow cytometry (propidium iodide); assay type: cell-based; details: MCF-7, 5.73 µM, 24 h
# Experimental: Based on the anti-proliferative activity results, we selected compound 4 to further explore and achieve insights into the mechanism responsible for the cytotoxicity of this class of compounds. Toward this aim, we assessed the effect of compound 4 on the cell cycle distribution of MCF-7 cells utilizing flow cytometry analysis. The cell cycle distribution analysis was evaluated after incubation of MCF-7 cells with compound 4 at 5.73 µM. […] Further, compound 4 induced a substantial diminution in the cellular population at the G2/M stage. As indicated in Figure 5a–c, the cellular populations of the G2/M and pre-G1 phases in the control cells were 16.99% and 2.12%, respectively, while the populations were altered to 6.81% and 31.66%, respectively, in the presence of compound 4 at 5.73 µM.
# To assess the effect of compound 4 on the cell cycle of MCF-7 cells, we treated the MCF-7 cells with compound 4 and analyzed the cell cycle arrest at different stages as previously reported. […] After the cells were incubated with propidium iodide (5 mg/mL, Sigma, Ronkonkoma, NY, USA) and Rnase (10 mg/mL, Sigma, Ronkonkoma, NY, USA), cytofluorometry analysis was performed using FACS Calibur cytometer, and the results were analyzed utilizing Cell quest software (BD Bioscience, San Jose, CA, USA).
IC50 [1] [µM],"IC50 ([2]; Homo sapiens, MDA-MB-231, 48 h) [µM]",melting point [°C],Structure (SMILES),also measured
24.9 ± 1.9,18.7 ± 1.42,–,"Oc1ccc(/C=N/Nc2nc(-c3ccc(Cl)cc3)cs2)cc1 [Compound 3a, (E)-4-((2-(4-(4-Chlorophenyl)thiazol-2-yl)hydrazineylidene)methyl)-phenol]",–
31.2 ± 2.38,36.8 ± 2.81,185,"C/C(=N\Nc1nc(-c2ccc(Cl)cc2)cs1)c1ccc(Br)cc1 [Compound 3b, (E)-2-(2-(1-(4-bromophenyl)ethylidene)hydrazineyl)-4-(4-chlorophenyl)thiazole]",–
13.7 ± 1.04,17.1,–,"C/C(=N\Nc1nc(-c2ccc(Br)cc2)cs1)c1ccccc1O [Compound 3c, (E)-2-(1-(2-(4-(4-Bromophenyl)thiazol-2-yl)hydrazineylidene)ethyl)-phenol]",IC50 ([2]; 48 h): 17.08 ± 0.13 µM; IC50 (human VEGFR-2/KDR): 0.253 ± 0.54 µM
5.73 ± 0.44,12.2 ± 0.93,–,"CC(=O)Nc1nc(-c2ccc(Cl)cc2)cs1 [Compound 4, N-(4-(4-Chlorophenyl)-Thiazol-2-yl)Acetamide]",IC50 [3]: 36.8 ± 5 µM; increase of apoptosis at the early stage compared to control cells (MCF-7 cells [4]): 9 times; increase of apoptosis at the late stage compared to control cells (MCF-7 cells [4]): 89 times; increase of necrosis compared to control cells (MCF-7 cells [4]): 9 times; necrosis percentage (MCF-7 cells [4]; control 1.26%): 11.77%; cellular population in pre-G1 phase (MCF-7 cells [5]; control 2.12%): 31.66%; cellular population in G2/M phase (MCF-7 cells [5]; control 16.99%): 6.81%
18.6 ± 1.42,20.7 ± 1.58,155 to 157,"C/C(=N\N(c1nc(-c2ccc(Cl)cc2)cs1)C(O)c1ccc(O)cc1)c1ccc(Br)cc1 (stereo not drawn) [Compound 5a, (E)-4-((2-(1-(4-Bromophenyl)ethylidene)-1-(4-(4-chlorophenyl)thiazol-2-yl)hydrazineyl)(hydroxy)methyl)phenol]",–
32.5 ± 2.47,62.12 ± 0.47,158 to 160,"COc1cc(C(O)N(/N=C(\C)c2ccc(Br)cc2)c2nc(-c3ccc(Cl)cc3)cs2)ccc1O (stereo not drawn) [Compound 5b, (E)-4-((2-(1-(4-Bromophenyl)ethylidene)-1-(4-(4-chlorophenyl)thiazol-2-yl)hydrazineyl)(hydroxy)methyl)-2-methoxyphenol]",–

Structure (SMILES),IC50 [1] [µM],"IC50 ([2]; Homo sapiens, MDA-MB-231, 48 h) [µM]",melting point [°C],also measured
"CC(=O)Oc1ccc(C(OC(C)=O)N(/N=C(\C)c2ccc(Br)cc2)c2nc(-c3ccc(Cl)cc3)cs2)cc1 (stereo not drawn) [Compound 6a, (E)-4-(Acetoxy(2-(1-(4-bromophenyl)ethylidene)-1-(4-(4-chlorophenyl)thiazol-2-yl)hydrazineyl)methyl)phenyl acetate]",> 100,> 100,126 to 128,–
"COc1cc(C(OC(C)=O)N(/N=C(\C)c2ccc(Br)cc2)c2nc(-c3ccc(Cl)cc3)cs2)ccc1OC(C)=O (stereo not drawn) [Compound 6b, (E)-4-(Acetoxy(2-(1-(4-bromophenyl)ethylidene)-1-(4-(4-chlorophenyl)thiazol-2-yl)hydrazineyl)methyl)-2-methoxyphenyl acetate]",43.8 ± 2.04,77 ± 1.95,126 to 128,–
